Literature values, collected in patent publication US20200215024A1, “CANNABINOID FORMULATIONS FOR TREATING ALCOHOL HANGOVER” (Replennabis LLC, priority 2019, published 2020).

Settings: in vivo

Structure (SMILES): CCCCCc1cc(O)c2c(c1)OC(C)(C)[C@@H]1CCC(C)=C[C@@H]21 [THC, tetrahydrocannabinol]
- oral bioavailability: less than 8%
